# In ChEMBL document CHEMBL3785070, “Synthesis and evaluation of novel opioid ligands with a C-homomorphinan skeleton” (Bioorg Med Chem, 2016):
# Assays:
# [1] = target: T1, Kappa-type opioid receptor (Homo sapiens, UniProt P41145); assay: Displacement of [3H]U-69,593 from human kappa opioid receptor expressed in CHO cell membranes
# [2] = target: T2, Delta-type opioid receptor (Homo sapiens, UniProt P41143); assay: Displacement of [3H]DPDPE from human delta opioid receptor expressed in CHO cell membranes
# T2 sequence (P41143 whole entry): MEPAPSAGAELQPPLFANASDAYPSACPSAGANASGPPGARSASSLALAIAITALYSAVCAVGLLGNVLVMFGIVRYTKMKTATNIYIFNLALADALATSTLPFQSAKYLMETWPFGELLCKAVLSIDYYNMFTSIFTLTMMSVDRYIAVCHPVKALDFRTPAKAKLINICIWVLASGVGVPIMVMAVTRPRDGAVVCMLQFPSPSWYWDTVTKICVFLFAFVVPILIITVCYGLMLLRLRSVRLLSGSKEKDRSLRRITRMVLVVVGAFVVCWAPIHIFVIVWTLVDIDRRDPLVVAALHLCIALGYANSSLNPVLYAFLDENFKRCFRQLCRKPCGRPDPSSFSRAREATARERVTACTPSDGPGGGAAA
# Mu-type opioid receptor [3] = target: T3, Mu-type opioid receptor (Homo sapiens, UniProt P35372); assay: Displacement of [3H]DAMGO from human mu opioid receptor expressed in CHO cell membranes
# T3 sequence (P35372 whole entry): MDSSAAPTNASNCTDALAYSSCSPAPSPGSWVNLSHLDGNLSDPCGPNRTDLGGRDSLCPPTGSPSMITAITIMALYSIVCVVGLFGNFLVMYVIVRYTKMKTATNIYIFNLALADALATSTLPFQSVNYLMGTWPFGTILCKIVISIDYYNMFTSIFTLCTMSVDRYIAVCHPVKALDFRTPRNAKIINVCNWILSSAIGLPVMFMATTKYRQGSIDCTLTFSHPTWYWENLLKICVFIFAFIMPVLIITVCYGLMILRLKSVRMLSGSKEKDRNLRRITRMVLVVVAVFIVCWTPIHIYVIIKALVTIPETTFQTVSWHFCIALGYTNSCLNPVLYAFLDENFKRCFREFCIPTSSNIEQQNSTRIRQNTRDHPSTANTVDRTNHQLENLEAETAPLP
# CHO [4] = assay: Selectivity ratio of Ki for human mu opioid receptor expressed in CHO cell membranes to Ki for human delta opioid receptor expressed in CHO cell membranes; assay type: cell-based
# CHO [5] = assay: Selectivity ratio of Ki for human kappa opioid receptor expressed in CHO cell membranes to Ki for human delta opioid receptor expressed in CHO cell membranes; assay type: cell-based
# [6] = target: T2, Delta-type opioid receptor; assay: Agonist activity at human delta opioid receptor expressed in CHO cell membranes by [35S]GTPgammaS binding assay; assay type: functional
# Mu-type opioid receptor [7] = target: T3, Mu-type opioid receptor; assay: Agonist activity at human mu opioid receptor expressed in CHO cell membranes by [35S]GTPgammaS binding assay; assay type: functional
# [8] = target: T1, Kappa-type opioid receptor; assay: Agonist activity at human kappa opioid receptor expressed in CHO cell membranes by [35S]GTPgammaS binding assay; assay type: functional
# [9] = target: T2, Delta-type opioid receptor; assay: Agonist activity at human delta opioid receptor expressed in CHO cell membranes by [35S]GTPgammaS binding assay relative to SNC80; assay type: functional
# Mu-type opioid receptor [10] = target: T3, Mu-type opioid receptor; assay: Agonist activity at human mu opioid receptor expressed in CHO cell membranes by [35S]GTPgammaS binding assay relative to DAMGO; assay type: functional
# [11] = target: T1, Kappa-type opioid receptor; assay: Agonist activity at human kappa opioid receptor expressed in CHO cell membranes at 10 uM by [35S]GTPgammaS binding assay relative to U-69,593; assay type: functional
# [12] = target: T1, Kappa-type opioid receptor; assay: Agonist activity at human kappa opioid receptor expressed in CHO cell membranes by [35S]GTPgammaS binding assay relative to U-69,593; assay type: functional
# Mu-type opioid receptor [13] = target: T3, Mu-type opioid receptor; assay: Agonist activity at human mu opioid receptor expressed in CHO cell membranes at 10 uM by [35S]GTPgammaS binding assay relative to DAMGO; assay type: functional
# T1 sequence (P41145 whole entry): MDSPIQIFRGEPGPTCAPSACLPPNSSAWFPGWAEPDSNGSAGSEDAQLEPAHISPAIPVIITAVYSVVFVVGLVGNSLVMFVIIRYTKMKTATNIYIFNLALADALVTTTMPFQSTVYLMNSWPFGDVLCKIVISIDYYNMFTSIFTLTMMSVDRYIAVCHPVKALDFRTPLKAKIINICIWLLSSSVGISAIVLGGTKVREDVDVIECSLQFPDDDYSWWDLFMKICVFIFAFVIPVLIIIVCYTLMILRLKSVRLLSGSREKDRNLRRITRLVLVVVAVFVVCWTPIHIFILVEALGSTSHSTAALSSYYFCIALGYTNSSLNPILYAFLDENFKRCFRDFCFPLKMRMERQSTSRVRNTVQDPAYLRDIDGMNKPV
Structure (SMILES),Ki [1] [nM],Ki [2] [nM],Ki (Mu-type opioid receptor [3]) [nM],Ratio Ki (CHO [4]),Ratio Ki (CHO [5]),EC50 [6] [nM],EC50 (Mu-type opioid receptor [7]) [nM],EC50 [8] [nM],Emax [9] [%],Emax (Mu-type opioid receptor [10]) [%],Activity [11] [%],Emax [12] [%],Activity (Mu-type opioid receptor [13]) [%]
O=C1CCC[C@@]2(O)C3Cc4ccc(O)cc4[C@@]2(CCN3CC2CC2)C1,0.748,12.1,0.692,,,,,,,,,,
O=C1/C(=C/c2ccccc2)C[C@@]2(O)[C@H]3Cc4ccc(O)c5c4[C@@]2(CCN3CC2CC2)[C@H]1O5 [BNTX],28.3,3.53,10.5,3,8,,,,,,,,
Oc1ccc2c(c1)[C@]13CCN(CC4CC4)C(C2)[C@]1(O)Cc1cc2ccccc2nc1C3,3.22,0.303,7.2,,,0.813,> 10000,> 10000,,,,,
O=C1C[C@]23CCN(CC4CC4)[C@H](Cc4ccc(O)cc42)[C@]3(O)C/C1=C/c1ccccc1,9.65,0.585,4.61,7.9,16.5,3.17,54.6,> 10000,40.8,31.8,30,,
Oc1ccc2c(c1)[C@]13CCN(CC4CC4)[C@H](C2)[C@]1(O)CCc1cc2ccccc2nc1C3,,,,7.7,1.9,,,,104,31.2,,43.9,
O=C1C[C@]23CCN(CC4CC4)[C@H](Cc4ccc(O)cc42)[C@]3(O)CC/C1=C\c1ccccc1,,,,9,14.1,,,,,,,18.4,
O=C1C[C@]23CCN(CC4CC4)[C@H](Cc4ccc(O)cc42)[C@]3(O)C/C1=C\c1ccccc1,39.1,2.76,22,8,14.2,12.5,> 10000,8.02,37,,,20.2,25.6
O=C1C[C@]23CCN(CC4CC4)C(Cc4ccc(O)cc42)[C@]3(O)CC/C1=C/c1ccccc1,17.5,9.81,52.2,,,1.83,19.2,21.4,,,,,
O=C1CC[C@@]2(O)[C@H]3Cc4ccc(O)cc4[C@@]2(CCN3CC2CC2)C1,0.648,2.62,0.769,0.29,0.25,,,,,,,,
Oc1ccc2c(c1)[C@]13CCN(CC4CC4)C(C2)[C@]1(O)Cc1c([nH]c2ccccc12)C3,2.97,0.0945,24.7,,,1.4,> 10000,3.76,,,,,
Oc1ccc2c(c1)[C@]13CCN(CC4CC4)[C@@H](C2)[C@]1(O)Cc1cc2ccccc2nc1C3,,,,23.8,10.7,,,,82.6,,28.1,,20.8
O=C1C[C@]23CCN(CC4CC4)[C@H](Cc4ccc(O)cc42)[C@]3(O)CC/C1=C/c1ccccc1,,,,5.3,1.8,,,,27,38.6,,39.4,
O=C1CCC[C@@]2(O)[C@H]3Cc4ccc(O)cc4[C@@]2(CCN3CC2CC2)C1,,,,0.057,0.062,,,,,,,,
Oc1ccc2c(c1)[C@]13CCN(CC4CC4)C(C2)[C@]1(O)CCc1c([nH]c2ccccc12)C3,6.63,0.531,5.75,,,1.06,6.23,3.19,,,,,
Oc1ccc2c(c1)[C@]13CCN(CC4CC4)[C@H](C2)[C@]1(O)CCc1c([nH]c2ccccc12)C3,,,,10.8,12.5,,,,64.8,23.5,,10,
Oc1ccc2c(c1)[C@]13CCN(CC4CC4)C(C2)[C@]1(O)CCc1cc2ccccc2nc1C3,4.3,2.3,17.6,,,7.32,11.6,28.4,,,,,
Oc1ccc2c(c1)[C@]13CCN(CC4CC4)[C@@H](C2)[C@]1(O)Cc1c([nH]c2ccccc12)C3,,,,261,31.4,,,,38.9,,,15.4,33
O=C1C[C@]23CCN(CC4CC4)C(Cc4ccc(O)cc42)[C@]3(O)CC/C1=C\c1ccccc1,9.11,0.644,5.81,,,> 10000,,14.7,,,,,
